According to PubChem BioAssay (NCI):
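Where inhibition never reached the appropriate level, the endpoint shown equals the highest concentration tested. Otherwise, values were interpolated linearly from a five-concentration, 48-hour dose response in 96-well plates. The concentration for 50% growth inhibition is given as GI50. TGI is the concentration that stops growth completely.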

Legend:
Assay in all cases: NCI anticancer screen, dose series, 48 h
DLD-1 colon = test system: DLD-1 colon
DMS 114 small cell lung = test system: DMS 114 small cell lung
HCC-2998 colon = test system: HCC-2998 colon
M14 melanoma = test system: M14 melanoma
OVCAR-3 ovarian = test system: OVCAR-3 ovarian
OVCAR-5 ovarian = test system: OVCAR-5 ovarian
RPMI-8226 leukemia = test system: RPMI-8226 leukemia
SNB-78 CNS = test system: SNB-78 CNS
UACC-257 melanoma = test system: UACC-257 melanoma
UO-31 renal = test system: UO-31 renal
XF 498 CNS = test system: XF 498 CNS
NCI/ADR-RES ovarian = test system: NCI/ADR-RES ovarian

SMILES	TGI (DLD-1 colon) [µM]	TGI (DMS 114 small cell lung) [µM]	TGI (HCC-2998 colon) [µM]	TGI (M14 melanoma) [µM]	TGI (OVCAR-3 ovarian) [µM]	TGI (OVCAR-5 ovarian) [µM]	TGI (RPMI-8226 leukemia) [µM]	TGI (SNB-78 CNS) [µM]	TGI (UACC-257 melanoma) [µM]	TGI (UO-31 renal) [µM]	TGI (XF 498 CNS) [µM]	TGI (NCI/ADR-RES ovarian) [µM]	GI50 (OVCAR-5 ovarian) [µM]	GI50 (HCC-2998 colon) [µM]	GI50 (M14 melanoma) [µM]	GI50 (NCI/ADR-RES ovarian) [µM]	GI50 (OVCAR-3 ovarian) [µM]	GI50 (RPMI-8226 leukemia) [µM]	GI50 (UACC-257 melanoma) [µM]	GI50 (UO-31 renal) [µM]
O=[N+]([O-])c1ccc(-c2csc(=[N+]3CCCCC3)s2)cc1	> 100	8.03	> 100	> 100	> 100	62.6	> 100	> 100	31.4	> 100	48.1									
CC[C@]12C=CCN3CCC4(c5cc([C@@]6(C(=O)OC)CC7CN(CCc8c6[nH]c6ccccc86)CC6CCCCC67)c(OC)cc5N(C)C4[C@](O)(C(=O)OC)C1OC(C)=O)[C@@H]32 (stereo partly drawn)	13.2	< 0.01	< 0.01	1.35		0.0926	61.3	18.8	18.8	7.31	9.12	0.512								
O=C1Nc2cc(F)ccc2C1=O	> 100	> 100	> 100	> 100		> 100	> 100	> 100	> 100	> 100	> 100									
CCCn1cc2c3c(cccc31)C1C=C(C)CN(C)C1C2 (stereo not drawn)	54.3	43.1	38		52.6	57	25.1	73.4	29.6	38.8		58.8								
c1cncc(CSc2nc3ccccc3nc2-c2cccs2)c1	> 100		> 100	> 100	83.3	> 100	> 100	> 100	> 100	> 100	> 100									
CC(C)(C)c1ccnc(N=C2N=C(Nc3cc(C(C)(C)C)ccn3)c3ccccc32)c1	> 100			> 100	47.4	> 100		75	76.1	65.3	38.6									
c1ccc2c(c1)cc1ccc3cccc4ccc2c1c34			> 100	> 100	> 100	> 100	> 100		> 100	> 100		> 100	> 100							
COc1ccc2c(c1OC)C(=O)N1C2=Cc2c(cc3c(c2OC)OCO3)CC1N(C)C (stereo not drawn)			> 100	> 100	> 100	> 100	99.6		> 100	> 100		> 100								
CCOC(=O)c1csc(NC(=O)CCN2CCCC2)n1			> 100	> 100	> 100	> 100	> 100		> 100	> 100		> 100								
CN(C)CCCNC(=O)N/N=C/c1ccccc1	> 100	> 100			> 100			> 100	> 100	> 100	> 100									
NCCCCNCCCN1CCOC1=O			> 100	> 100	> 100	> 100	> 100		> 100	> 100		> 100								
CCN(CC)CCCCNc1c2ccc(Cl)cc2nc2ccc(OC)cc12			2.32	2.58	2.99	3.33	4.2		3.91	3.31		3.95	0.465	0.78	1.15	0.645	0.501	0.566	1.8	0.759
COc1cc(N=Nc2ccc(OC)c(S(=O)(=O)O)c2)c(C)cc1N=Nc1ccc(/C=C/c2ccc(N=[N+]([O-])c3ccc(/C=C/c4ccc(N=Nc5cc(C)c(N=Nc6ccc(OC)c(S(=O)(=O)O)c6)cc5OC)cc4S(=O)(=O)O)c(S(=O)(=O)O)c3)cc2S(=O)(=O)O)c(S(=O)(=O)O)c1	> 100	> 100	> 100		> 100	> 100	> 100	> 100	> 100	> 100	> 100	> 100								
O=C1C=CC(=O)c2c(O)c(N3CCC[C@@H]3CO)c(Cl)c(O)c21			3.49	3.2	3.08	3.08	1.69		3.28	3.49		6.25								
COc1ccc([C@]23CCC4(OCC(C)(C)CO4)[C@H]4CON(O[C@H](O[C@@H]5CCCCC5C(C)(C)c5ccccc5)C2)[C@@H]43)cc1OC (stereo partly drawn)			> 100	> 100	> 100	> 100	> 100		> 100	> 100		> 100								
CC1=C(C(=O)OCCO[N+](=O)[O-])C(c2ccccc2[N+](=O)[O-])C(C(=O)OC(C)C)=C(C)N1 (stereo not drawn)			29.5	29.3	27.9	30.4	> 100		28.7	26.2		51.7								
N#CCCN(CCC#N)c1ccc(C(N=Nc2ccccc2)=Nc2ccc(F)cc2)cc1			> 100	> 100	> 100	> 100	> 100		> 100	> 100		> 100								
CC(C)=CCc1c(O)cc2oc(-c3ccc(O)cc3O)cc(=O)c2c1O			35.1	> 77.9	51.5	81.3	41.4		> 83.8	93.9		> 94.4								
Cc1nc2c(=O)n(-c3ccccc3)c(=O)n(-c3ccccc3)c2o1			> 100	> 100	> 100	> 100	> 100		> 100	> 100		> 100								
CCN(CC)C(=S)N/N=C(/c1ccccc1)c1ccccn1			37	0.794	32.5	22.9	45.1		2.56	9.52		14.3								
COc1ccc(-c2cc3cc(Cl)cc(Cl)c3oc2=O)cc1OC			> 100	> 100	> 100	> 100	> 100		> 100	> 100		> 100								
O=C1c2cc3c(cc2CC12Cc1ccc4c(c1C2=O)CCC4)CCC3 (stereo not drawn)			> 100	> 100	> 100	> 100	> 100		> 100	> 100		> 100								
Cc1c(C(=O)NNc2ccccc2)n2c(=S)[nH]nc2c2ccccc12			> 100	> 100	> 100	> 100	> 100		> 100	> 100		> 100								
O=c1c2cc([N+](=O)[O-])ccc2oc2nc3n(c(=O)c12)CCCS3			> 100	> 100	> 100	> 100	> 100		> 100	> 100		> 100								
O=c1c2ccc(Cl)cc2oc2c(CNc3ccc(S(=O)(=O)Nc4ncccn4)cc3)cccc12			> 100	> 100	> 100	> 100	> 100		> 100	> 100		> 100								
